This note sets out measurements from patent US20230212142A9, “Substituted 5-Cyclopropyl-1H-pyrazole-3-yl-amine Derivatives as Selective CDK12/13 Inhibitors” (Aurigene Discovery Technologies Limited, priority 2019, published 2023).

SMILES strings stand for the structures.

One experiment concerns the target CDK13 (Homo sapiens, UniProt Q14004). Description: Biochemical assay for CDK13 (LanthaScreen Eu Kinase Binding Assay). The note with it: kinase tracer 236 100 nM, CDK13 5 nM. On the procedure:
LanthaScreen Eu Kinase Binding Assays are based on the binding and displacement of Alexa Fluor 647-labeled, ATP-competitive kinase inhibitor scaffold (kinase tracer) to the kinase of interest. Binding of the kinase tracer 236 (100 nM) to the CDK13 (5 nM) kinase is detected using a europium-labelled anti- GST tag antibody (2 nM), which binds to the kinase. Simultaneous binding of the tracer and antibody to the kinase results in a high degree of FRET (fluorescence resonance energy transfer) from the europium (Eu) donor fluorophore to the Alexa Fluor™ 647 acceptor fluorophore on the kinase tracer. Binding of an inhibitor to the kinase competes for binding with the tracer, resulting in a loss of FRET signal.

For another experiment, the target named is CDK7 (Homo sapiens, UniProt P50613). Description: Biochemical assay for CDK7 (LANCE TR-FRET, ULight-MBP phosphorylation). The note with it: CDK7 10 nM, ATP 1 mM/100 μM, 60 min pre-incubation. On the procedure: The inhibitory activity of the test compounds was assessed by the LANCE TR-FRET assay, which detects the ATP-dependent phosphorylation of an ULight-myelin basic protein (MBP) substrate peptide (100 nM) by CDK7 (10 nM). Briefly, the enzyme reaction was run in reaction buffer (20 mM HEPES (pH 7.5), 10 mM MgCl2, 0.01% Triton x, 100 μM Sodium Orthovanadate, 1 mM DTT). The assay was performed in 384-well plate. The end concentration of the ATP substrate was 1 mM/100 μM, and that of the ULight-MBP substrate peptide was 100 nM, and of CDK7 was 10 nM. Pre-incubation of the compound and enzyme was performed for 60 min at room temperature. After 60 min incubation at room temperature, the reaction was terminated by the addition of 40 mM EDTA and 1 nM Eu-labeled anti-phospho-MBP-binding protein antibody in the buffer. Time-resolved fluorescence (excitation, 320 nm; emission donor, 615 nm; emission acceptor, 665 nm) was monitored by using 2030 multilabel reader Victor5 (PerkinElmer). The readout was calculated as (acceptor counts/donor counts)×1000. The IC50 values were derived by fitting a sigmoidal dose-response curve to a plot of assay readout over inhibitor concentration. All fits were computed with the program Prism 5.03 (Graph Pad Software, San Diego, Calif.).

The next experiment deals with CDK12 (Homo sapiens, UniProt Q9NYV4). The experiment in a line: Biochemical assay for CDK12 (kinase-tagged phage / qPCR competition binding). Also on record: host or cells: E. coli BL21-derived host (T7 phage display) or HEK-293. Here is the method: Kinase-tagged T7 phage strains were grown in parallel in 24-well blocks in an E. coli host derived from the BL21 strain. E. coli were grown to log-phase and infected with T7 phage from a frozen stock (multiplicity of infection=0.4) and incubated with shaking at 32° C. until lysis (90-150 minutes). The lysates were centrifuged (6,000×g) and filtered (0.2 μm) to remove cell debris. The remaining kinases were produced in HEK-293 cells and subsequently tagged with DNA for qPCR detection. Streptavidin-coated magnetic beads were treated with biotinylated small molecule ligands for 30 minutes at room temperature to generate affinity resins for kinase assays. The liganded beads were blocked with excess biotin and washed with blocking buffer (SeaBlock (Pierce), 1% BSA, 0.05% Tween 20, 1 mM
DTT) to remove unbound ligand and to reduce non-specific phage binding. Binding reactions were assembled by combining kinases, liganded affinity beads, and test compounds in lx binding buffer (20% SeaBlock, 0.17×PBS, 0.05% Tween 20, 6 mM DTT). Test compounds were prepared as 40× stocks in 100% DMSO and directly diluted into the assay. All reactions were performed in polypropylene 384-well plates in a final volume of 0.02 ml. The assay plates were incubated at room temperature with shaking for 1 hour and the affinity beads were washed with wash buffer (1 PBS, 0.05% Tween 20). The beads were then re-suspended in elution buffer (1× PBS, 0.05% Tween 20, 0.5 μM non-biotinylated affinity ligand) and incubated at room temperature with shaking for 30 minutes. The kinase concentration in the eluates was measured by qPCR.

Sequence of CDK7 (P50613 whole entry, species assumed): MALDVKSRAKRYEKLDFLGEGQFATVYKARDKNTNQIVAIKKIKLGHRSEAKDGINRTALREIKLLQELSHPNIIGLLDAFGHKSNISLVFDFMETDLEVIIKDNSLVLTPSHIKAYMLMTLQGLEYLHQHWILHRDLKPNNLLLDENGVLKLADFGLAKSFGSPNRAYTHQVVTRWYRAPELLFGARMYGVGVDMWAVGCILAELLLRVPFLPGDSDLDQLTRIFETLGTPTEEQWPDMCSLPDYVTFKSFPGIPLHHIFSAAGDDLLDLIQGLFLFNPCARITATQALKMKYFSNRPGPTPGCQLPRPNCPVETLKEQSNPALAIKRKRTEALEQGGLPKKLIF
Sequence of CDK7 (P51946 whole entry partner, species assumed): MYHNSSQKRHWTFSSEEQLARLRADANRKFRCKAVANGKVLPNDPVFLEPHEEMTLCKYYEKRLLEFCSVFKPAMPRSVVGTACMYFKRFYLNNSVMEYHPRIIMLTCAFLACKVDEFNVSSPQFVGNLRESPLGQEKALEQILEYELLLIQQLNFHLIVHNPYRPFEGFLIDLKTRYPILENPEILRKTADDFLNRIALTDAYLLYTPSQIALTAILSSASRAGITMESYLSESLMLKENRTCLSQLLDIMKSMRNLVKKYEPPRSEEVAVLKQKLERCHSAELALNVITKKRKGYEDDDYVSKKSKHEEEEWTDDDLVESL
Sequence of CDK7 (P51948 whole entry partner, species assumed): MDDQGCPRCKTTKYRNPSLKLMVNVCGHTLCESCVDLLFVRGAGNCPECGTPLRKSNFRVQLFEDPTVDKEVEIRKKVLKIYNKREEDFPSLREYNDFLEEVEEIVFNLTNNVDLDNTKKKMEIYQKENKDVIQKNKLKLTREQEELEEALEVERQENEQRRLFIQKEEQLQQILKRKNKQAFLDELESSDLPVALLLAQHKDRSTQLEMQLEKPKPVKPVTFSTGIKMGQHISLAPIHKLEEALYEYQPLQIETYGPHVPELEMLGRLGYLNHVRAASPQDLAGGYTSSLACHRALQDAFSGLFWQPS
Sequence of CDK13 (Q14004 whole entry, species assumed): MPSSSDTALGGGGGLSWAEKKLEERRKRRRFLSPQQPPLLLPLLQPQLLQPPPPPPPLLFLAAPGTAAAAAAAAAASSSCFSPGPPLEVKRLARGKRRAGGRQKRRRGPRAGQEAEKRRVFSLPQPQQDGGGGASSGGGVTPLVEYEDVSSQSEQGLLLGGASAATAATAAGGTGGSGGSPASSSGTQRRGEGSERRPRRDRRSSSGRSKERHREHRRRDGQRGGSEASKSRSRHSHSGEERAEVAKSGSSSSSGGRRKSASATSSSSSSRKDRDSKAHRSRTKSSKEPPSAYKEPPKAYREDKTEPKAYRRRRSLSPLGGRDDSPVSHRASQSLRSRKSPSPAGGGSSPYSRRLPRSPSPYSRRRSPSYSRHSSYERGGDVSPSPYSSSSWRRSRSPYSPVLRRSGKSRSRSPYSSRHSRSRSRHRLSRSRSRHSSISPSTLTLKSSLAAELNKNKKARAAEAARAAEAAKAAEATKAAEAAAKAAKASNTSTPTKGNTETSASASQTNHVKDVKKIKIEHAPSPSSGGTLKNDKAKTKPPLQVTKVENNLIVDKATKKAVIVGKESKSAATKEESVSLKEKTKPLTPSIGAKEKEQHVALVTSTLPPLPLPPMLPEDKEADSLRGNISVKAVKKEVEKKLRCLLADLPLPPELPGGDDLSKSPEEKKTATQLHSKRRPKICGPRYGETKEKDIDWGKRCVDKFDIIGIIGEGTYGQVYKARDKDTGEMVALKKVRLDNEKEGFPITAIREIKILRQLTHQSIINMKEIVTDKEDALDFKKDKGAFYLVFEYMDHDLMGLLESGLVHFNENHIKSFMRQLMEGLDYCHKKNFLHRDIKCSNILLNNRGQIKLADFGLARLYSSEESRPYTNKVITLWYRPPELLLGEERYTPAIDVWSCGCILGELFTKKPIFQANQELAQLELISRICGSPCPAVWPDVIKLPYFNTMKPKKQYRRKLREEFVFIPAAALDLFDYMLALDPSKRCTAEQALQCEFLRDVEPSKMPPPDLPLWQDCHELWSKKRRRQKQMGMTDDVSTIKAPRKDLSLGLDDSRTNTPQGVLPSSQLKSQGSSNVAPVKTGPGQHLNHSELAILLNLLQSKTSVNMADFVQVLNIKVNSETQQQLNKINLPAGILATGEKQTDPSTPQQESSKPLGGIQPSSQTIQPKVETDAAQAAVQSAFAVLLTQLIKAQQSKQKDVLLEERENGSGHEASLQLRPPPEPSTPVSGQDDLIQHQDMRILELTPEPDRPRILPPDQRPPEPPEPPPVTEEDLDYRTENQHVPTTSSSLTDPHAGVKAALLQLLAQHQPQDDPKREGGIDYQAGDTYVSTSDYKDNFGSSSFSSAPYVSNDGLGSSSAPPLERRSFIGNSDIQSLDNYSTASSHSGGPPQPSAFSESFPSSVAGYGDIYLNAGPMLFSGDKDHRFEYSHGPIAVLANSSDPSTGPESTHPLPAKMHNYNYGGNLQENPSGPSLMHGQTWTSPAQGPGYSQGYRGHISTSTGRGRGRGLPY
Sequence of CDK13 (O75909 whole entry partner, species assumed): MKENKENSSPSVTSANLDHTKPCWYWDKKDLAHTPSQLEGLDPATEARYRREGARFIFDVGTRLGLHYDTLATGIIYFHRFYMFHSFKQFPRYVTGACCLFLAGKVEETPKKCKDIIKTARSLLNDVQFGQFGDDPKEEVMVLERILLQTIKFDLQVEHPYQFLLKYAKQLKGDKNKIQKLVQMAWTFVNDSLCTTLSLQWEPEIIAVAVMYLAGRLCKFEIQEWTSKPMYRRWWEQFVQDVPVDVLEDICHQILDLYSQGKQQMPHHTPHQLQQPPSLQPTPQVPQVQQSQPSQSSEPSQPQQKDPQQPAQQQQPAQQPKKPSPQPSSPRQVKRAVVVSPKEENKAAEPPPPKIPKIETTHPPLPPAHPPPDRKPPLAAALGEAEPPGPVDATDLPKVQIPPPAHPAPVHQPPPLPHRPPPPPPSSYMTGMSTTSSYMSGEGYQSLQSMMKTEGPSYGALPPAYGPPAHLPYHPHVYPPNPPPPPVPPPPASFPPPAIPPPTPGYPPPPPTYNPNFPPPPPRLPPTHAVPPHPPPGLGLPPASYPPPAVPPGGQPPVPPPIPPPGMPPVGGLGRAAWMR
Sequence of CDK12 (Q9NYV4 whole entry, species assumed): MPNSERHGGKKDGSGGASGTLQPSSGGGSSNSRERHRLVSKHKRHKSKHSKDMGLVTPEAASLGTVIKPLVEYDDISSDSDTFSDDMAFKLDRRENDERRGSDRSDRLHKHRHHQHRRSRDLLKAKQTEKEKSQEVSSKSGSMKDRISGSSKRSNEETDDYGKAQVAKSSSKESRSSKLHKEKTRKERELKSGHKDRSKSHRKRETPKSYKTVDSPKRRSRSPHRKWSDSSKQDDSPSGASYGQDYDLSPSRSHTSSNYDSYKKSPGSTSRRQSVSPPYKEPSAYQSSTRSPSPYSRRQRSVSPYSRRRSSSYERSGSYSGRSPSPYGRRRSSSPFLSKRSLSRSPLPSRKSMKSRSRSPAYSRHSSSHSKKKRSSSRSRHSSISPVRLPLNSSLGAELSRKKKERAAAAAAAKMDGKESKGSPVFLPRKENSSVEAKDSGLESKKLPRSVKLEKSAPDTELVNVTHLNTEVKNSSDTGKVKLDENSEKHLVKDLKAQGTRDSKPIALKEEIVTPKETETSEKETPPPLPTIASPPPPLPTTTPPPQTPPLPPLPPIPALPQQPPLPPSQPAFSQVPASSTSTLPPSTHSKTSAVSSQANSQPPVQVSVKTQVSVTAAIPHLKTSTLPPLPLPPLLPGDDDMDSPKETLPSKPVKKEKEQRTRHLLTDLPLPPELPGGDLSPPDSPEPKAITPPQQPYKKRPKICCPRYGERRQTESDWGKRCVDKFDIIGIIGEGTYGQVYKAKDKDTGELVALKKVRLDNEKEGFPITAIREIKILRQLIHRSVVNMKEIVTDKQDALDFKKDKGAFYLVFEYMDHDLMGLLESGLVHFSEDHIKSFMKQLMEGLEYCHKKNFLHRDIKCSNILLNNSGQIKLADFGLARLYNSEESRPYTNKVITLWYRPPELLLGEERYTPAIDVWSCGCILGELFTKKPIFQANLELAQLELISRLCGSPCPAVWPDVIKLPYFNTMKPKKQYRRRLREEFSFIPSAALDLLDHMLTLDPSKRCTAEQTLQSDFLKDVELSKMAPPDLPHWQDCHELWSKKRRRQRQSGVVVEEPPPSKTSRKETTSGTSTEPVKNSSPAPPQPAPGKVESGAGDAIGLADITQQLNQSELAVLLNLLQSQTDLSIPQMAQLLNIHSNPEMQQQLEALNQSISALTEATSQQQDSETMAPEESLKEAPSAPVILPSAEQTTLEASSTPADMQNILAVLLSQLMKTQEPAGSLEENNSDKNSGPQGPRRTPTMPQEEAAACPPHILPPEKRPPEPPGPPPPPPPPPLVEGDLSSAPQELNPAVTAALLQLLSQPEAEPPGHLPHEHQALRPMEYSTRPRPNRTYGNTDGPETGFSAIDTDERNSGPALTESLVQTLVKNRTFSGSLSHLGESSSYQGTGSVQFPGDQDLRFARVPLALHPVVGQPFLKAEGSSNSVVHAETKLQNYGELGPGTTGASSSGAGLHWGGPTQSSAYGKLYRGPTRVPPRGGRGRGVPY

Regarding `CC(C(=O)Nc1cc(C2CC2)[nH]n1)c1ccc(-c2ccc(NC(=O)/C=C/CN3CCOCC3)nc2)cc1` (single isomer, unassigned) [Compound 7, (E)-N-(5-(4-(1-((5-cyclopropyl-1H-pyrazol-3-yl)amino)-1-oxopropan-2-yl)phenyl)pyridin-2-yl)-4-morpholinobut-2-enamide], the IC50 at CDK13 is 5 nM; at CDK7 it was 1020 nM. Moreover, the Kd at CDK12 was < 50 nM.
In the case of `C=CC(=O)NCc1ncc(-c2ccc([C@H](C)C(=O)Nc3cc(C4CC4)[nH]n3)cc2)cc1F` [Compound 21, (S)-N-((5-(4-(1-((5-cyclopropyl-1H-pyrazol-3-yl)amino)-1-oxopropan-2-yl)phenyl)-3-fluoropyridin-2-yl)methyl)acrylamide], the figures for the IC50 at CDK13 and at CDK7 were 87.7 nM and 1310 nM, respectively. For the same compound, the Kd on CDK12 was < 50 nM.
In the same order, the values of `C=CC(=O)NC(C)c1ccc(-c2ccc([C@H](C)C(=O)Nc3cc(C4CC4)[nH]n3)cc2)cn1` (stereo partly drawn) [Compound 20, N-(1-(5-(4-((S)-1-((5-cyclopropyl-1H-pyrazol-3-yl)amino)-1-oxopropan-2-yl)phenyl)pyridin-2-yl)ethyl)acrylamide] are 36.2 nM, 2870 nM and < 50 nM.
On to `CC(C(=O)Nc1cc(C2CC2)[nH]n1)c1ccc(-c2ccc(CNC(=O)/C=C/CN3CCOCC3)nc2)cc1` (single isomer, unassigned) [Compound 14, (E)-N-((5-(4-(1-((5-cyclopropyl-1H-pyrazol-3-yl)amino)-1-oxopropan-2-yl)phenyl)pyridin-2-yl)methyl)-4-morpholinobut-2-enamide], for which the figures for the IC50 at CDK13 and against CDK7 were 3.9 nM and 1120 nM, respectively. Moreover, at CDK12, the equilibrium dissociation constant (Kd) was < 50 nM.
In the same order, the values of `C=CC(=O)NCc1ccc(C(C)C(=O)Nc2cc(C3CC3)[nH]n2)cc1` (racemic) [Compound 23, N-(4-(1-((5-cyclopropyl-1H-pyrazol-3-yl)amino)-1-oxopropan-2-yl)benzyl)acrylamide] are 280 nM, > 10000 nM and 50 to 500 nM.
`C=CC(=O)NC(CC)c1ccc(-c2ccc([C@H](C)C(=O)Nc3cc(C4CC4)[nH]n3)cc2)cn1` (stereo partly drawn) [Compound 19, N-(1-(5-(4-((S)-1-((5-cyclopropyl-1H-pyrazol-3-yl)amino)-1-oxopropan-2-yl)phenyl)pyridin-2-yl)propyl)acrylamide]: the IC50 at CDK13 worked out at 13 nM. The Kd on CDK12 was < 50 nM.
Turning to `CC(C(=O)Nc1cc(C2CC2)[nH]n1)c1ccc(-c2ccc(CNC(=O)/C=C/CN3CCOCC3)cc2)cc1` (stereo not shown) [Compound 15, (E)-N-((4′-(1-((5-cyclopropyl-1H-pyrazol-3-yl)amino)-1-oxopropan-2-yl)-[1,1′-biphenyl]-4-yl)methyl)-4-morpholinobut-2-enamide], the results for the IC50 at CDK13 and against CDK7 were 257 nM and 3660 nM, respectively. Also, on CDK12, the dissociation constant (Kd) was < 50 nM.
As to `C=CC(=O)Nc1ccc(-c2ccc(C(C)C(=O)Nc3cc(C4CC4)[nH]n3)cc2)cc1` (single isomer, unassigned) [Compound 3, N-(4′-(1-((5-cyclopropyl-1H-pyrazol-3-yl)amino)-1-oxopropan-2-yl)-[1,1′-biphenyl]-4-yl)acrylamide], the results for the IC50 at CDK13 and against CDK7 were 18 nM and 1900 nM, respectively.
With `C=CC(=O)NCc1ccc(-c2ccc(C(C)C(=O)Nc3cc(C4CC4)[nH]n3)cc2)cc1` (racemic) [Compound 9, N-((4′-(1-((5-cyclopropyl-1H-pyrazol-3-yl)amino)-1-oxopropan-2-yl)-[1,1′-biphenyl]-4-yl)methyl)acrylamide], the IC50 on CDK13 stood at 16.9 nM; on CDK7 it was 5450 nM. For the same compound, the dissociation constant Kd on CDK12 was > 500 nM.
On to `C=CC(=O)NCc1ccc(C(C)C(=O)Nc2cc(C3CC3)[nH]n2)cc1` (single isomer, unassigned) [Compound 25, N-(4-(1-((5-cyclopropyl-1H-pyrazol-3-yl)amino)-1-oxopropan-2-yl)benzyl)acrylamide], for which, at CDK12, the Kd was > 500 nM.
For `C=CC(=O)NCc1ccc(-c2ccc(C(C)C(=O)Nc3cc(C4CC4)[nH]n3)cc2)cc1` (single isomer, unassigned) [Compound 11, N-((4′-(1-((5-cyclopropyl-1H-pyrazol-3-yl)amino)-1-oxopropan-2-yl)-[1,1′-biphenyl]-4-yl)methyl)acrylamide], the 50% inhibitory concentration (IC50) at CDK13 was determined as 96 nM; at CDK7 it was 2120 nM.
For `CC(C(=O)Nc1cc(C2CC2)[nH]n1)c1ccc(-c2ccc(CNC(=O)/C=C/CN3CCOCC3)cc2)cc1` (single isomer, unassigned) [Compound 17, (E)-N-((4′-(1-((5-cyclopropyl-1H-pyrazol-3-yl)amino)-1-oxopropan-2-yl)-[1,1′-biphenyl]-4-yl)methyl)-4-morpholinobut-2-enamide], the IC50 at CDK13 stood at 53.6 nM; on CDK7 it was 1560 nM. Moreover, the equilibrium dissociation constant (Kd) at CDK12 is < 50 nM.
As to `C=CC(=O)NC1(c2ccc(-c3ccc([C@H](C)C(=O)Nc4cc(C5CC5)[nH]n4)cc3)cn2)CC1` [Compound 18, (S)-N-(1-(5-(4-(1-((5-cyclopropyl-1H-pyrazol-3-yl)amino)-1-oxopropan-2-yl)phenyl)pyridin-2-yl)cyclopropyl)acrylamide], the IC50 came to 119 nM at CDK13 and 5450 nM against CDK7. Moreover, the dissociation constant Kd at CDK12 was < 50 nM.
In the same order, the values of `CC(C(=O)Nc1cc(C2CC2)[nH]n1)c1ccc(-c2ccc(NC(=O)/C=C/CN3CCOCC3)nc2)cc1` (single isomer, unassigned) [Compound 6, (E)-N-(5-(4-(1-((5-cyclopropyl-1H-pyrazol-3-yl)amino)-1-oxopropan-2-yl)phenyl)pyridin-2-yl)-4-morpholinobut-2-enamide] are 500 nM, > 10000 nM and 50 to 500 nM.
Take `CC(C(=O)Nc1cc(C2CC2)[nH]n1)c1ccc(-c2ccc(NC(=O)/C=C/CN3CCOCC3)nc2)cc1` (stereo not shown) [Compound 5, (E)-N-(5-(4-(1-((5-cyclopropyl-1H-pyrazol-3-yl)amino)-1-oxopropan-2-yl)phenyl)pyridin-2-yl)-4-morpholinobut-2-enamide]: the IC50 at CDK13 turned out to be 24 nM; at CDK7 it was 1700 nM.
On to `C=CC(=O)NCc1ccc(-c2ccc(C(C)C(=O)Nc3cc(C4CC4)[nH]n3)cn2)cn1` (stereo not shown) [Compound 4, N-((5-(1-((5-cyclopropyl-1H-pyrazol-3-yl)amino)-1-oxopropan-2-yl)[2,3′-bipyridin]-6′-yl)methyl)acrylamide], for which the half-inhibitory concentration (IC50) at CDK13 stood at 4 nM.
Take `C=CC(=O)NCc1ccc(C(C)C(=O)Nc2cc(C3CC3)[nH]n2)cc1` (single isomer, unassigned) [Compound 24, N-(4-(1-((5-cyclopropyl-1H-pyrazol-3-yl)amino)-1-oxopropan-2-yl)benzyl)acrylamide]: the 50% inhibitory concentration (IC50) on CDK13 is 236 nM. Moreover, the Kd on CDK12 lay in the range of 50 to 500 nM.
Taken in the same sequence, the figures for `C=CC(=O)NCc1ccc(C(C)C(=O)Nc2cc(C3CC3)[nH]n2)cn1` (stereo not shown) [Compound 26, N-((5-(1-((5-cyclopropyl-1H-pyrazol-3-yl)amino)-1-oxopropan-2-yl)pyridin-2-yl)methyl)acrylamide] were 328 nM and 50 to 500 nM.
In the same order, the values of `CC(C(=O)Nc1cc(C2CC2)[nH]n1)c1ccc(-c2ccc(NC(=O)/C=C/CN3CCOCC3)cc2)cc1` (stereo not shown) [Compound 12, (E)-N-(4′-(1-((5-cyclopropyl-1H-pyrazol-3-yl)amino)-1-oxopropan-2-yl)-[1,1′-biphenyl]-4-yl)-4-morpholinobut-2-enamide] are 60.8 nM and < 50 nM.
